These results are taken from patent US10301288B2, “Kinase inhibitors” (Topivert Pharma Limited, priority 2013, dated 2019).

The test system of data set [1] is PBMCs. The data set is described as follows: (b) LPS-induced TNFα/IL-8 release in PBMC cells. The format is cell-based. Conditions: Homo sapiens, read-out: IC50 for Inhibition of Cytokine Release, IL-8. The method, then:
Peripheral blood mononuclear cells (PBMCs) from healthy subjects are separated from whole blood using a density gradient (Lymphoprep, Axis-Shield Healthcare). The PBMCs are seeded in 96 well plates and treated with compounds at the desired concentration for 2 hours before addition of 1 ng/ml LPS (Escherichia Coli 0111:B4 from Sigma Aldrich) for 24 hours under normal tissue culture conditions (37° C., 5% CO2). The supernatant is harvested for determination of IL-8 and TNFα concentrations by sandwich ELISA (Duo-set, R&D systems) and read on the fluorescence microplate reader (Varioskan® Flash, ThermoFisher Scientific).

A further data set concerns β-catenin. The data set is described as follows: (m) Accumulation of β catenin in d-U937 cells. Format: cell-based, human. Particulars: Reference Compound at 1 μg/mL defined as 100%. On the procedure:
U937 cells, a human monocytic cell line, are differentiated into macrophage-type cells by incubation with PMA; (100 ng/mL) for between 48 to 72 hr. The cells are then incubated with either final concentrations of test compound or vehicle for 18 hr. The induction of β-catenin by the test compounds is stopped by replacing the media with 4% formaldehyde solution. Endogenous peroxide activity is neutralised by incubating with quenching buffer (100 μL, 0.1% sodium azide, 1% H2O2 in PBS with 0.05% Tween-20) for 20 min. The cells are washed with washing buffer (200 μL; PBS containing 0.05% Tween-20) and incubated with blocking solution (200 μL; 5% milk in PBS) for 1 hr, re-washed with washing buffer (200 μL) and then incubated overnight with anti-β-catenin antibody solution (50 μL) in 1% BSA/PBS (BD, Oxford, UK).
After washing with washing buffer (3×200 μL; PBS containing 0.05% Tween-20), cells are incubated with an HRP-conjugated secondary antibody solution (100 μL) in 1% BSA/PBS (Dako, Cambridge, UK) and the resultant signal is determined colourimetrically (OD: 450 nm with a reference wavelength of 655 nm) using TMB substrate (50 μL; R&D Systems, Abingdon, UK). This reaction is stopped by addition of 1N H2SO4 solution (50 μL). Cells are then washed with washing buffer and 2% crystal violet solution (50 μL) is applied for 30 min. After washing with washing buffer (3×200 μL), 1% SDS (100 μL) is added to each well and the plates are shaken lightly for 1 hr prior to measuring the absorbance at 595 nm (Varioskan® Flash, Thermo-Fisher Scientific).
The measured OD450-655 readings are corrected for cell number by dividing the OD450-655 by the OD595 readings.

Data set [2] deals with PBMCs. The data set is described as follows: (i) Cell mitosis assay in PBMCs. Format: cell-based. Particulars: Homo sapiens, PBMC, 5 μg/mL. The method, then: PBMCs from healthy subjects are separated from whole blood (Quintiles, London, UK) using a density gradient (Histopaque®-1077, Sigma-Aldrich, Poole, UK). The PBMCs (3 million cells per sample) are subsequently treated with 2% PHA (Sigma-Aldrich, Poole, UK) for 48 hr, followed by a 20 hr exposure to varying concentrations of test compounds. At 2 hr before collection, PBMCs are treated with demecolcine (0.1 μg/mL; Invitrogen, Paisley, UK) to arrest cells in metaphase. […] Fluorescence is observed using an ATTUNE flow cytometer (Invitrogen, Paisley, UK), gating for lymphocytes.

The next data set relates to HT29 cells. The experiment in a line: (d) IL-1β-induced IL-8 release in HT29 cells. Particulars: Homo sapiens, HT-29, read-out: IC50 for Inhibition of Cytokine Release, IL-8. The format is cell-based. The method, then:
HT29 cells, a human colon adenocarcinoma cell line, are plated in a 96 well plate (24 hrs) and pre-treated with compounds at the desired concentration for 2 hours before addition of 5 ng/ml of IL-1β (Abeam) for 24 hours. Supernatants are harvested for IL-8 quantification by Sandwich ELISA (Duo-set, R&D System). The IC50 is determined from the dose response curve.

In the next data set the target is c-Src (Homo sapiens (Human), UniProt P12931). The experiment in a line: c-Src enzyme inhibition (FRET). The format is biochemical. The method, then: (§1) The enzyme inhibitory activities of compounds disclosed herein are determined by FRET using synthetic peptides labelled with both donor and acceptor fluorophores (Z-LYTE, Invitrogen Ltd., Paisley, UK).
(§2) The inhibitory activities of compounds of the invention against c-Src and Syk enzymes (Invitrogen), are evaluated in a similar fashion to that described hereinabove. The relevant enzyme (3000 ng/mL or 2000 ng/mL respectively, 2.5 μL) is incubated with the test compound (either 4 μg/mL, 0.4 μg/mL, 0.04 μg/mL, or 0.004 μg/mL, 2.5 μL each) for 2 hr at RT. The FRET peptides (8 μM. 2.5 μL), and appropriate ATP solutions (2.5 μL, 800 μM for c-Src, and 60 μM ATP for Syk) are then added to the enzymes/compound mixtures and incubated for 1 hr. Development reagent (protease, 5 μL) is added for 1 hr prior to detection in a fluorescence microplate reader (Varioskan® Flash, ThermoFisher Scientific).
(§3) In all cases, the site-specific protease cleaves non-phosphorylated peptide only and eliminates the FRET signal. Phosphorylation levels of each reaction are calculated using the ratio of coumarin emission (donor) over fluorescein emission (acceptor), for which high ratios indicate high phosphorylation and low ratios indicate low phosphorylation levels.

In a further data set the target is Syk (Homo sapiens (Human), UniProt P43405). The data set is described as follows: Syk enzyme inhibition (FRET). The format is biochemical. On the procedure:
as §1, §2, §3

Data set [3] concerns PBMCs. The experiment in a line: (c) IL-2 and IFN gamma release in CD3/CD28 stimulated PBMC cells. The format is cell-based. Conditions: Homo sapiens. The method, then: PBMCs from healthy subjects are separated from whole blood using a density gradient (Lymphoprep, Axis-Shield Healthcare). Cells are added to a 96 well plate pre-coated with a mixture of CD3/CD28 monoclonal antibodies (0.3 ug/ml eBioscience and 3 ug/ml BD Pharmingen respectively). Compound at the desired concentration is then added to the wells and the plate left for 3 days under normal tissue culture conditions. […] The IC50 is determined from the dose response curve.

The nature of data set [4]: Hydrolytic stability study in DMSO and water (3:1). The format is physicochemical. Conditions: 1 mg/mL. The method, then: General HPLC Procedure • Agilent, Waters X-Select C18, 2.5 μm, 4.6×30 mm column, 4 min method, 5-95% MeCN/water (0.1% formic acid). • Flow rate 2.5 ml/min • Column Oven Temperature 40° C. • Detection 254 nm.
Sample Preparation • A 1.0 mg sample of test compound was dissolved in 750 μL of DMSO. Water (250 μL) was added slowly, ensuring no precipitation occurred.
Recording Stability • A 50 μL aliquot of the test solution was removed and analysed in duplicate by 5 μL HPLC injections. The peak area for the test compound was recorded following manual integration of the corresponding UV trace. • The test solution was heated to 60° C., with stirring, and 50 μL aliquots removed for HPLC analysis at 5 and 24 h timepoints.

A further data set has as its target p38 MAPKα (Homo sapiens (Human), UniProt Q16539). The data set is described as follows: p38 MAPKα enzyme inhibition (FRET, Method 2). Format: biochemical. On the procedure: as §1
The inhibitory activities of test compounds against the p38 MAPKα isoform (MAPK14: Invitrogen), are evaluated indirectly by determining the level of activation/phosphorylation of the down-stream molecule, MAPKAP-K2. The p38 MAPKα protein (80 ng/mL, 2.5 μL) is mixed with the test compound (2.5 μL of either 4 μg/mL, 0.4 μg/mL, 0.04 μg/mL or 0.004 μg/mL) for 2 hr at RT. […] The mixture is incubated for 1 hr at RT. Development reagent (protease, 5 μL) is added for 1 hr prior to detection in a fluorescence microplate reader (Varioskan® Flash, ThermoFisher Scientific).
as §3

A further data set addresses GSK3α (Homo sapiens (Human), UniProt P49840). The experiment in a line: GSK 3α enzyme inhibition (FRET, Method 2). Format: biochemical. On the procedure:
as §1
The inhibitory activities of compounds of the invention against the GSK 3α enzyme isoform (Invitrogen), are evaluated by determining the level of activation/phosphorylation of the target peptide. The GSK3-α protein (500 ng/mL, 2.5 μL) is mixed with the test compound (2.5 μL at either 4 μg/mL, 0.4 μg/mL, 0.04 μg/mL, or 0.004 μg/mL) for 2 hr at RT. The FRET peptide (8 μM, 2.5 μL), which is a phosphorylation target for GSK3α, and ATP (40 μM, 2.5 μL) are then added to the enzyme/compound mixture and the resulting mixture incubated for 1 hr. Development reagent (protease, 5 μL) is added for 1 hr prior to detection in a fluorescence microplate reader (Varioskan® Flash, ThermoFisher Scientific).
as §3

[5] abbreviates: read-out: IC50 for Inhibition of Cytokine Release, IFNγ.
The mark [6] stands for this setting: read-out: IC50 for Inhibition of Cytokine Release, IL-2.

Chain of GSK3α (P49840 whole entry): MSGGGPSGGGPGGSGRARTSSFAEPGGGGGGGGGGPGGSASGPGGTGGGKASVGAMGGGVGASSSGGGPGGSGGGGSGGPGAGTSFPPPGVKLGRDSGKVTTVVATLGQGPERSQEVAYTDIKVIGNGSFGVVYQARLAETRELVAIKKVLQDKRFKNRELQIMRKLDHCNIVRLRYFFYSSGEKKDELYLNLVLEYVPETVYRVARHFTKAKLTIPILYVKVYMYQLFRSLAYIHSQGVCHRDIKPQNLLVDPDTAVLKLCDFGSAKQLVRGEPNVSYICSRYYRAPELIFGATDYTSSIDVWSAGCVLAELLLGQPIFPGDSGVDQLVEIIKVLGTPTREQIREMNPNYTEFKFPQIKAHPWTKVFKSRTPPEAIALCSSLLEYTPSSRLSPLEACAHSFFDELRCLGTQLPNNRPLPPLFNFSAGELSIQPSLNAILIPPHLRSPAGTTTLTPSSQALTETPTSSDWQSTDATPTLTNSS
Chain of p38 MAPKα (Q16539 whole entry, canonical isoform): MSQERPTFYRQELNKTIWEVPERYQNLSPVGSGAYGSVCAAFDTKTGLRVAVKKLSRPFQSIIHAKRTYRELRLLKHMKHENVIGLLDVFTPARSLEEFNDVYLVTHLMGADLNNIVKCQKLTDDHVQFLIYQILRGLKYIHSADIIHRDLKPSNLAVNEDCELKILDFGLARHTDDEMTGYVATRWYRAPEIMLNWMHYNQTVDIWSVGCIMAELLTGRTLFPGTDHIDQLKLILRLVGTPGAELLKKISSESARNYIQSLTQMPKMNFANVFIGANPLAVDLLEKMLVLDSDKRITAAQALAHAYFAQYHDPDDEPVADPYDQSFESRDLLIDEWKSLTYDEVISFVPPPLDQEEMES
Chain of c-Src (P12931 whole entry, looked up): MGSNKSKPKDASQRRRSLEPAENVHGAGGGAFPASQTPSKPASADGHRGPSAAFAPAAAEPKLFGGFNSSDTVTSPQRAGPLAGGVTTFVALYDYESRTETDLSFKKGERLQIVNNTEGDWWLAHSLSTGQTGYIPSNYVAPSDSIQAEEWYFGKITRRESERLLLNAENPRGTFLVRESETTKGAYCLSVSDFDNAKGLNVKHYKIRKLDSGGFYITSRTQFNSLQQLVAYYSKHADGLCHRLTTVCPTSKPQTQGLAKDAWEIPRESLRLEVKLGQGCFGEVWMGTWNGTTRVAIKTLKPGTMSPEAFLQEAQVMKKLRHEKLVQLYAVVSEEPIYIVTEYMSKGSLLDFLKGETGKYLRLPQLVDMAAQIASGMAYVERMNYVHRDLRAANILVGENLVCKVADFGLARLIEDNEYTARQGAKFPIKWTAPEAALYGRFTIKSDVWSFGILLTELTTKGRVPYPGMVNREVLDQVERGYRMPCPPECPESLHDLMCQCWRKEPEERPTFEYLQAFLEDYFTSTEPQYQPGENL

The IC50 is the midpoint of a concentration-inhibition curve. As a reminder, the inhibition is the drop in the measured response relative to a control, in per cent. In the case of `[2H]c1c([2H])c(C([2H])([2H])[2H])c([2H])c([2H])c1-n1nc(C(C)(C)C)cc1NC(=O)Nc1ccc(Oc2ccnc(Nc3cc(C#C)cc(C(=O)NCCOCCOCCOC)c3)n2)c2ccccc12` [Example 6, 3-((4-((4-(3-(3-(tert-Butyl)-1-(2,3,5,6-tetradeutero-4-(trideuteromethyl)-phenyl)-1H-pyrazol-5-yl)ureido)naphthalen-1-yl)oxy)pyrimidin-2-yl)amino)-5-ethynyl-N-(2-(2-(2-methoxyethoxy)ethoxy)ethyl)benzamide], the IC50 turned out to be 2.3 nM in the data set with PBMCs [1]; 2.4 nM with HT29 cells; 17 nM on c-Src; 96 nM on Syk; 2.9 nM in the data set on PBMCs [3] (setting [5]); 123 nM in the data set on PBMCs [3] (setting [6]). The “% β-catenin induction” value with β-catenin (1 μg/mL) is reported as 3%; in the data set with β-catenin (5 μg/mL), 3%; with β-catenin (10 μg/mL) it was −1%. In the data set on PBMCs [2], this molecule gave an inhibition at 5 µg/mL of 10.2%.
Regarding `C#Cc1cc(Nc2nccc(Oc3ccc(NC(=O)Nc4cc(C(C)C)nn4-c4ccc(C)cc4)c4ccccc34)n2)cc(C(=O)NCCN2CCOCC2)c1` [Reference Compound A, 3-ethynyl-5-((4-((4-(3-(3-isopropyl-1-(p-tolyl)-1H-pyrazol-5-yl)ureido)naphthalen-1-yl)oxy)pyrimidin-2-yl)amino)-N-(2-morpholinoethyl)benzamide, reference compound], the “% left” value came out at 100% in [4] (0 min); 82% in data set [4] (60° C., 300 min); 36% in data set [4] (60° C., 1440 min).
On to `COCCOCCOCCNC(=O)c1cc(Nc2cc(Oc3ccc(NC(=O)Nc4cc(C(C)(C)C)nn4-c4ccc(C)cc4)c4ccccc34)ccn2)cc(OC)c1` [Example 4, 3-((4-((4-(3-(3-(tert-Butyl)-1-(p-tolyl)-1H-pyrazol-5-yl)ureido)naphthalen-1-yl)oxy)pyridin-2-yl)amino)-5-methoxy-N-(2-(2-(2-methoxyethoxy)ethoxy)ethyl)-benzamide], for which the IC50 with PBMCs [1] was 1.4 nM; on p38 MAPKα, 50 nM; with HT29 cells, 5.3 nM; against c-Src it was 19 nM; against Syk, 46 nM; against GSK3α it was 9550 nM. The 50% inhibitory concentration (IC50) in the data set on PBMCs [3] (setting [5]) was 2.4 nM; in the data set with PBMCs [3] (setting [6]), 37.4 nM. The “% β-catenin induction” value was determined as 5% in the data set with β-catenin (1 μg/mL) and 12% with β-catenin (5 μg/mL). The inhibition at 5 µg/mL in the data set with PBMCs [2] is 38.8%.
As for `C#Cc1cc(Nc2nccc(Oc3ccc(NC(=O)Nc4cc(C(C)(C)C)nn4-c4ccc(C)cc4)c4ccccc34)n2)cc(C(=O)NCCOCCOCCOCCOC)c1` [Example 7, 3-((4-((4-(3-(3-(tert-Butyl)-1-(p-tolyl)-1H-pyrazol-5-yl)ureido)naphthalen-1-yl)oxy)pyrimidin-2-yl)amino)-5-ethynyl-N-(2,5,8,11-tetraoxatridecan-13-yl)benzamide], the IC50 in the data set on PBMCs [1] came out at 2.4 nM; on p38 MAPKα, 88 nM; in the data set with HT29 cells, 1.6 nM; against c-Src, 18 nM; at Syk it was 237 nM; on GSK3α, 2020 nM. Besides, the IC50 was 3.7 nM with PBMCs [3] (setting [5]) and 91 nM with PBMCs [3] (setting [6]). Further, the “% β-catenin induction” value with β-catenin (1 μg/mL) was 0%; with β-catenin (5 μg/mL), −2%; in the data set with β-catenin (10 μg/mL), −5%. In the data set with PBMCs [2], the inhibition at 5 µg/mL came out at 9.1%.
In the case of `C#Cc1cc(Nc2nccc(Oc3ccc(NC(=O)Nc4cc(C(C)(C)C)nn4-c4ccc(C)cc4)c4ccccc34)n2)cc(C(=O)NCCOCCOC)c1` [Example 8, 3-((4-((4-(3-(3-(tert-Butyl)-1-(p-tolyl)-1H-pyrazol-5-yl)ureido)naphthalen-1-yl)oxy)pyrimidin-2-yl)amino)-5-ethynyl-N-(2-(2-methoxyethoxy)ethyl)benzamide], the IC50 was found to be 1.6 nM in the data set on PBMCs [1]; 104 nM against p38 MAPKα; 3.2 nM in the data set with HT29 cells; 20 nM against c-Src; 120 nM against Syk; 2890 nM on GSK3α. Further, the IC50 in the data set with PBMCs [3] (setting [5]) was found to be 8.5 nM; with PBMCs [3] (setting [6]), 55 nM. The “% β-catenin induction” value in the data set on β-catenin (1 μg/mL) is on record as 6%; in the data set with β-catenin (5 μg/mL), 3%; in the data set on β-catenin (10 μg/mL), 2%. In the data set with PBMCs [2], this molecule had an inhibition at 5 µg/mL of 6.1%.
